Earlier results on 3 compounds are cited in patent publication US6964965B2, “Substituted pyrazine derivatives” (Pharmacia & Upjohn, priority 2002, dated 2005).

The subject of series [1] is human epidermal keratinocyte cells. As to conditions: cultured human epidermal keratinocyte cells.
Another series has as its system CRF. As to conditions: for effect on the “anxiogenic” effects / actions of CRF in the conflict test: conflict test (operant conflict test).

Take `CCN(c1nc(C)cc(N2CC=C(c3cccc(F)c3)CC2)n1)c1ccc(C(C)C)cc1SC` [2-[N-(2-methylthio-4-isopropylphenyl)-N-ethylamino]-4-[4-(3-fluorophenyl)-1,2,3,6-tetrahydropyridine-1-yl]-6-methylpyrimidine]: the “keratinocyte cell proliferation promoting effect” value in series [1] is listed as “showed keratinocyte cell proliferation promoting effect”.

For the compound `CNC(=O)c1cc2c(cn1)[nH]c1ccccc12` [FG 7142], the “effect on the “anxiogenic” effects / actions of CRF in the conflict test” value in the series on CRF is listed as “enhanced the actions of CRF”.

Consider `CCOC(=O)c1ncn2c1CN(C)C(=O)c1cc(F)ccc1-2` [Ro 15-1788], for which the “behavioral activity of the substance alone in the operant conflict test” value in the series with CRF (alone, without CRF) is given as “without behavioral activity alone”. In addition, the “effect on the “anxiogenic” effects / actions of CRF in the conflict test” value with CRF is given as “reversed the effects of CRF in a dose-dependent manner”.
